From the C3SDB collision cross section collection
Several values for one entry are separate records, joined by “and”; a condition that tells them apart may be missing. Identical values can stand only once. Counter-ions that a name gives are not always drawn.

Experiments:
[1] = instrument: DT, single field, calibrated with ESI Low Concentration Tuning Mix (Agilent)
[2] = instrument: TW, calibrated with polyalanine and drug standards

Row | collision cross section (N2) ([1]; [M+H]+) | collision cross section (N2) ([1]; [M+Na]+) | collision cross section (N2) ([1]; [M-H]-) | Structure (SMILES) | further results
1 |  |  | 126.1 Å² | CC(=O)Oc1cccc(O)c1 [RESORCINOL MONOACETATE] | 
2 |  | 136.2 Å² | 125.8 Å² | OC[C@@H](O)C(O)[C@@H](O)CO (stereo partly specified) [RIBITOL] | 
3 | 137.1 Å² | 138.2 Å² | 130 Å² | NC(CSCC(=O)O)C(=O)O (stereo unspecified) [S-CARBOXYMETHYLCYSTEINE] | collision cross section (N2) ([1]; [M+Na-2H]-): 136.7 Å²
4 |  |  | 119.8 Å² | O=C(O)c1ccccc1[O-] [SALICYLATE] | 
5 | 148.6 Å² | 151.5 Å² |  | NCCCNCCCCNCCCN [SPERMINE] | 
6 | 189 Å² | 191.1 Å² |  | CCCCCCCCCCCCCCC[C@@H](O)[C@@H](N)CO [SPHINGANINE] | 
7 | 131.2 Å² and 136.9 Å² |  |  | Cn1cnc2c1c(=O)[nH]c(=O)n2C [THEOBROMINE] | 
8 |  |  | 132 Å² | Cn1c(=O)c2[nH]cnc2n(C)c1=O [THEOPHYLLINE] | collision cross section (N2) ([2]; [M+H]+): 133.5 Å²
9 | 126.7 Å² |  | 120.2 Å² | C[C@@H](O)[C@H](N)C(=O)O [THREONINE] | 
10 | 127.9 Å² | 139.3 Å² | 126.2 Å² and 126.3 Å² | O=C(O)[C@@H]1C[C@@H](O)CN1 [TRANS-4-HYDROXY-L-PROLINE] | 
11 |  | 139.8 Å² | 118.9 Å² | O=C(O)c1c[nH]c(=O)[nH]c1=O [URACIL 5-CARBOXYLATE] | 
12 | 130.7 Å² |  |  | O=c1[nH]c(=O)c2[nH]c(=O)[nH]c2[nH]1 [URATE] | 
13 | 187 Å² | 188.8 Å² | 180.1 Å² and 180.2 Å² | O=c1ccn([C@@H]2O[C@H](COP(=O)(O)OP(=O)(O)OP(=O)(O)O)[C@@H](O)[C@H]2O)c(=O)[nH]1 [URIDINE TRIPHOSPHATE] | collision cross section (N2) ([1]; [M+Na-2H]-): 190.2 Å²
14 |  | 160.9 Å² | 150.7 Å² | O=c1ccn([C@@H]2O[C@H](CO)[C@@H](O)[C@H]2O)c(=O)[nH]1 [URIDINE] | 
15 | 129.9 Å² |  | 120.6 Å² | O=c1[nH]c(=O)c2[nH]cnc2[nH]1 [XANTHINE] | 
16 | 140.4 Å² | 147.7 Å² | 134.3 Å² | O=C(O)c1cc(=O)c2cccc(O)c2[nH]1 [XANTHURENATE] | 
17 |  | 135.4 Å² | 124.8 Å² | OC[C@@H](O)C(O)[C@@H](O)CO (stereo partly specified) [XYLITOL] | 
18 |  | 134.9 Å² |  | OC1OC[C@@H](O)[C@H](O)[C@H]1O (stereo partly specified) [XYLOSE] | 

The remaining lines, values behind:

Row | Structure (SMILES) | collision cross section (N2) ([1]; [M+H]+) | collision cross section (N2) ([1]; [M+Na]+) | collision cross section (N2) ([1]; [M-H]-) | further results
19 | CC(=O)OCC[N+](C)(C)C [ACETYLCHOLINE] |  |  |  | collision cross section (N2) ([1]; [M+]+): 129.5 Å²; collision cross section (N2) ([2]; [M]+): 130.1 Å²
20 | Nc1ncnc2nc[nH]c12 [ADENINE] | 124.9 Å² | 137 Å² and 137.4 Å² | 119.6 Å² and 119.8 Å² | collision cross section (N2) ([2]; [M+H]+): 122.4 Å²
21 | Nc1ncnc2c1ncn2[C@@H]1O[C@H](CO)[C@@H](O)[C@H]1O [ADENOSINE] | 155.6 Å² and 161.4 Å² | 165.5 Å² | 157.6 Å² | collision cross section (N2) ([2]; [M+H]+): 156.9 Å²
22 | O=C(O)CCCC[C@@H]1SC[C@@H]2NC(=O)N[C@@H]21 [BIOTIN] | 149.7 Å² | 159.9 Å² |  | collision cross section (N2) ([1]; [M+K]+): 160.1 Å²; collision cross section (N2) ([1]; [M+Na-2H]-): 152.9 Å²; collision cross section (N2) ([2]; [M+H]+): 148 Å²
23 | C[C@]12CCC(=O)C=C1CC[C@@H]1[C@@H]2C(=O)C[C@@]2(C)[C@H]1CC[C@]2(O)C(=O)CO [CORTISONE] | 188.3 Å² | 213.2 Å² | 191.4 Å² | collision cross section (N2) ([2]; [M+H]+): 184.4 Å²
24 | N[C@@H](CSSC[C@H](N)C(=O)O)C(=O)O [CYSTINE] | 149.4 Å² | 151.2 Å² | 143 Å² | collision cross section (N2) ([1]; [M+Na-2H]-): 147.3 Å²; collision cross section (N2) ([2]; [M+H]+): 148.1 Å²
25 | Nc1ccn([C@@H]2O[C@H](CO)[C@@H](O)[C@H]2O)c(=O)n1 [CYTIDINE] | 151 Å² | 159.7 Å² | 149.8 Å² | collision cross section (N2) ([2]; [M+H]+): 151.1 Å²
26 | Nc1ncnc2c1ncn2[C@H]1C[C@H](O)[C@@H](CO)O1 [DEOXYADENOSINE] | 152.3 Å² and 158.1 Å² | 161.6 Å² | 155.3 Å² | collision cross section (N2) ([2]; [M+H]+): 154.6 Å²
27 | O=C1O[C@H](CO)[C@@H](O)[C@H](O)[C@H]1O [GLUCONOLACTONE] |  | 144.7 Å² |  | collision cross section (N2) ([1]; [M+H2O-H]-): 132.6 Å²; collision cross section (N2) ([1]; [M+H20-H]-): 132.5 Å²; collision cross section (N2) ([2]; [M+H]+): 127.6 Å²
28 | O=c1nc[nH]c2nc[nH]c12 [HYPOXANTHINE] | 127.2 Å² | 134.4 Å² | 116.9 Å² | collision cross section (N2) ([1]; [M+Na-2H]-): 134.4 Å²; collision cross section (N2) ([2]; [M+H]+): 123.1 Å²
29 | N[C@@H](Cc1cc(I)c(Oc2ccc(O)c(I)c2)c(I)c1)C(=O)O [LIOTHYRONINE] | 209.1 Å² | 194.3 Å² |  | collision cross section (N2) ([2]; [M+H]+): 205.3 Å²
30 | OC[C@@H](O)[C@@H](O)[C@H](O)[C@H](O)CO [MANNITOL] |  | 141.1 Å² |  | collision cross section (N2) ([2]; [M+Na]+): 139.6 Å²
31 | COc1ccc2[nH]cc(CCNC(C)=O)c2c1 [MELATONIN] | 153.2 Å² |  |  | collision cross section (N2) ([1]; [M+K]+): 158.3 Å²; collision cross section (N2) ([2]; [M+H]+): 152 Å²
32 | OC[C@H]1O[C@H](OC[C@H]2OC(O)[C@H](O)[C@@H](O)[C@@H]2O)[C@H](O)[C@@H](O)[C@H]1O (stereo partly specified) [MELIBIOSE] | 180.4 Å² | 177.3 Å² | 178.1 Å² | collision cross section (N2) ([1]; [M+K]+): 180 Å²; collision cross section (N2) ([2]; [M+Na]+): 174.8 Å²
33 | CC(=O)N[C@H]1[C@H]([C@H](O)[C@H](O)CO)OC(O)(C(=O)O)C[C@@H]1O (stereo partly specified) [N-ACETYLNEURAMINATE] | 166.5 Å² | 168.7 Å² | 158.5 Å² and 163.8 Å² | collision cross section (N2) ([1]; [M+Na-2H]-): 171.4 Å²
34 | CN[C@@H](CCC(=O)O)C(=O)O [N-METHYLGLUTAMATE] | 132.2 Å² |  | 129.5 Å² | collision cross section (N2) ([1]; [M+Na-2H]-): 137.2 Å²
35 | CNCCc1c[nH]c2ccccc12 [N-METHYLTRYPTAMINE] | 142.5 Å² |  |  | 
36 | O=C([O-])c1cccnc1 [NICOTINATE] |  |  | 121 Å² | 

Row | Structure (SMILES) | collision cross section (N2) ([1]; [M+H]+) | collision cross section (N2) ([1]; [M+Na]+) | collision cross section (N2) ([1]; [M-H]-) | further results
37 | COc1cc(C(O)CN)ccc1O (stereo unspecified) [NORMETANEPHRINE] |  | 155 Å² |  | 
38 | O=C(O)CCCCCCCCCCCO [OMEGA-HYDROXYDODECANOATE] |  | 160.3 Å² | 152.6 Å² | 
39 | O=C(O)CCCC(=O)C(=O)O [OXOADIPATE] |  | 137.9 Å² | 126.5 Å² | collision cross section (N2) ([1]; [M+Na-2H]-): 132.2 Å²
40 | CCCCCC/C=C\CCCCCCCC(=O)O [PALMITOLEATE] |  |  | 167.3 Å² | 
41 | CCCCCCCCCCCCCCCC(=O)OC(CC(=O)[O-])C[N+](C)(C)C (stereo unspecified) [PALMITOYLCARNITINE] | 213.9 Å² | 219.7 Å² |  | 
42 | Cn1c(=O)[nH]c2ncn(C)c2c1=O [PARAXANTHINE] | 138.7 Å² | 149.5 Å² |  | collision cross section (N2) ([2]; [M+H]+): 132.4 Å²
43 | CN(CC(=O)O)/C(N)=N/P(=O)(O)O [PHOSPHOCREATINE] | 144.6 Å² and 144.8 Å² |  |  | collision cross section (N2) ([1]; [M+Na-2H]-): 142.7 Å² and 142.8 Å²
44 | C=C(OP(=O)(O)O)C(=O)O [PHOSPHOENOLPYRUVATE] |  | 138 Å² and 138.4 Å² |  | 
45 | O=C(O)CP(=O)(O)O [PHOSPHONOACETATE] |  | 134.5 Å² |  | 
46 | CC(=O)[C@H]1CC[C@H]2[C@@H]3CC=C4C[C@@H](OS(=O)(=O)O)CC[C@]4(C)[C@H]3CC[C@]12C [PREGNENOLONE SULFATE] |  |  | 206.2 Å² | 
47 | O=C(O)[C@@H]1CCCN1 [PROLINE] | 125.1 Å² |  | 124.5 Å² | 
48 | C=Cc1c(C)c2cc3[nH]c(cc4nc(cc5nc(cc1[nH]2)C(C)=C5CCC(=O)O)C(CCC(=O)O)=C4C)c(C)c3C=C [PROTOPORPHYRIN] | 241.3 Å² |  |  | 
49 | OCC1(O)OC[C@@H](O)[C@@H](O)[C@H]1O (stereo partly specified) [PSICOSE] |  | 137.6 Å² |  | 
50 | Nc1nc(=O)c2nccnc2[nH]1 [PTERIN] | 128.6 Å² | 143.4 Å² | 128.1 Å² | 
51 | Cc1ncc(COP(=O)(O)O)c(C=O)c1O [PYRIDOXAL-PHOSPHATE] | 151.3 Å² | 160.8 Å² | 149.4 Å² | collision cross section (N2) ([1]; [M+Na-2H]-): 153.2 Å²
52 | O=C(O)C1(O)C[C@@H](O)C(O)[C@H](O)C1 (stereo partly specified) [QUINATE] |  | 151.7 Å² | 134.5 Å² | 
53 | O=C/C=C/c1ccccc1 [TRANS-CINNAMALDEHYDE] | 121.5 Å² |  |  | 
